The values below are quoted from earlier work in patent US20200215024A1, “CANNABINOID FORMULATIONS FOR TREATING ALCOHOL HANGOVER” (Replennabis LLC, priority 2019, published 2020).

For the data set the following is noted: in vivo.

On to `CCCCCc1cc(O)c2c(c1)OC(C)(C)[C@@H]1CCC(C)=C[C@@H]21` [THC, tetrahydrocannabinol], for which the oral bioavailability entry was “less than 8%”.
